Measured values from publication PMC7932537, “Quantitative profiling of protease specificity” (PLoS Computational Biology, 2021).

Experiments:
[1] = molecular target: MMP-9 (Homo sapiens, UniProt P14780); assay: K(obs) of individual phage substrates (set of 1369); type: biochemical; conditions: MMP9
[2] = test system: MMP-2; assay: Substrate phage display with NGS: relative probability (RP) of P3-P1' tetramer clusters; type: biochemical, human; conditions: MMP2;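 also: ratio of tetramer probability after protease selection to that in naive phage library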
[3] = molecular target: T1, MMP-2 (Homo sapiens, UniProt P08253); assay: K(obs) of individual phage substrates (set of 1369); type: biochemical; conditions: MMP2
T1 sequence (P08253 110-660): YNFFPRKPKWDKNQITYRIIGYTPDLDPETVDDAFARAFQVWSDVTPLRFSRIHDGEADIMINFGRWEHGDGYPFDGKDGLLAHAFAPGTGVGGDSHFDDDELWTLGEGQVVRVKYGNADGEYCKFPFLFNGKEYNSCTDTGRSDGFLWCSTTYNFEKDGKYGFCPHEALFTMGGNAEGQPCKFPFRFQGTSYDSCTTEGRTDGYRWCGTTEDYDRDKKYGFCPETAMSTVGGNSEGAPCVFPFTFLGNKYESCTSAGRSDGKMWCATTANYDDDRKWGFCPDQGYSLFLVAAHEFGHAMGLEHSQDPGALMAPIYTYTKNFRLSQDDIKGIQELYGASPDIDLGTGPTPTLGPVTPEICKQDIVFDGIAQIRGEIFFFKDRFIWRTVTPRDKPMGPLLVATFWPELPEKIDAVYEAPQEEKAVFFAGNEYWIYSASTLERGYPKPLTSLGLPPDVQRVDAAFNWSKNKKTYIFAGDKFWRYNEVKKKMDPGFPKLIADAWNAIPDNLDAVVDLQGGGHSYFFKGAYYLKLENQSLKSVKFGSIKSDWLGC

[4] = individual phage substrate of the set of 1369 peptides, dash in the sequence marks the cleavage position
[5] = RP of the P3-P1' tetramer contained in the substrate
[6] = individual phage substrate of the set of 1369 peptides, cleavage position marked by '-'
[7] = individual phage substrates, set of 1369 peptides, hyphen in sequence marks cleavage position
[8] = RP of the P3-P1' tetramer contained in the substrate (substrate phage display with NGS)
[9] = individual phage substrates, set of 1369 peptides, cleavage position marked by hyphen in sequence
[10] = individual phage substrates, set of 1369 peptides, dash in sequence marks cleavage position
[11] = individual phage substrate from the set of 1369 peptides, cleavage position marked by the dash in the sequence
[12] = individual phage substrates, set of 1369 peptides, '-' marks the cleavage position (P1-P1')
[13] = individual phage substrates, set of 1369 peptides, cleavage position marked by '-' in the sequence

Chain of MMP-9 (P14780 94-707): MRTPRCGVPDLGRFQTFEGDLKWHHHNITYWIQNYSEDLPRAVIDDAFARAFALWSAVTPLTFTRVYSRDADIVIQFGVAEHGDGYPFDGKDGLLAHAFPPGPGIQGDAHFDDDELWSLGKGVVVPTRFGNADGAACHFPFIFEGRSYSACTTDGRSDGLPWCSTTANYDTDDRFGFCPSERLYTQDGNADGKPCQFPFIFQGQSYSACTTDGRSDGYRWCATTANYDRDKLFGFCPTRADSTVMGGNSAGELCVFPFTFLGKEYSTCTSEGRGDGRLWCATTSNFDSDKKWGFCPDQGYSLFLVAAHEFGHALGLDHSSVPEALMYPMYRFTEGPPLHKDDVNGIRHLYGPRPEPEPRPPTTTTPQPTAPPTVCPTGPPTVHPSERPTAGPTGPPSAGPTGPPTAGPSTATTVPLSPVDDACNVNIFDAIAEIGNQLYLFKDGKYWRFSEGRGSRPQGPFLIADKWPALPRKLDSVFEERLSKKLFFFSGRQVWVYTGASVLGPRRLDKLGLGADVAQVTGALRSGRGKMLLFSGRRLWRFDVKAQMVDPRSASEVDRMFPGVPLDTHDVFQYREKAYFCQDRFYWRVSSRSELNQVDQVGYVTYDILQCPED

AAWAS-ITASG
Kobs [1, 4]: 0 M⁻¹ s⁻¹
relative probability (RP) [2, 5]: 12.5247
Kobs [3, 6]: 6396.07 M⁻¹ s⁻¹

ACIWS-LTASG
Kobs [1, 4]: 355.093 M⁻¹ s⁻¹
relative probability (RP) [2, 5]: 5.404
Kobs [3, 6]: 27.918 M⁻¹ s⁻¹

AFLSH-WTASG
Kobs [1, 7]: 0 M⁻¹ s⁻¹
relative probability (RP) [2, 8]: 23.1226
Kobs [3, 9]: 12792.1 M⁻¹ s⁻¹

AGPQP-LTASG
Kobs [1, 7]: 12792.1 M⁻¹ s⁻¹
relative probability (RP) [2, 8]: 30.3595
Kobs [3, 9]: 12792.1 M⁻¹ s⁻¹

AGVRY-LTASG
Kobs [1, 7]: 7815.03 M⁻¹ s⁻¹
relative probability (RP) [2, 8]: 18.3724
Kobs [3, 9]: 5889.62 M⁻¹ s⁻¹

AHFAH-LTASG
Kobs [1, 7]: 0 M⁻¹ s⁻¹
relative probability (RP) [2, 8]: 19.6504
Kobs [3, 9]: 2687.73 M⁻¹ s⁻¹

AHVFA-LTASG
Kobs [1, 7]: 8941.32 M⁻¹ s⁻¹
relative probability (RP) [2, 8]: 11.8827
Kobs [3, 9]: 4205.91 M⁻¹ s⁻¹

AHYAS-LTASG
Kobs [1, 4]: 0 M⁻¹ s⁻¹
relative probability (RP) [2, 5]: 26.9916
Kobs [3, 6]: 10866.7 M⁻¹ s⁻¹

AKVMS-LTASG
Kobs [1, 7]: 2218.08 M⁻¹ s⁻¹
relative probability (RP) [2, 8]: 14.6983
Kobs [3, 9]: 1513.13 M⁻¹ s⁻¹

AMPLH-MTASG
Kobs [1, 7]: 7386.83 M⁻¹ s⁻¹
relative probability (RP) [2, 8]: 30.0095
Kobs [3, 9]: 6688.74 M⁻¹ s⁻¹

ANYSN-ITASG
Kobs [1, 7]: 0 M⁻¹ s⁻¹
relative probability (RP) [2, 8]: 14.6847
Kobs [3, 9]: 4470.66 M⁻¹ s⁻¹

APVLA-LTASG
Kobs [1, 7]: 6688.74 M⁻¹ s⁻¹
relative probability (RP) [2, 8]: 13.5229
Kobs [3, 9]: 12792.1 M⁻¹ s⁻¹

APYNH-LTASG
Kobs [1, 4]: 990.764 M⁻¹ s⁻¹
relative probability (RP) [2, 5]: 3.693
Kobs [3, 6]: 1327.88 M⁻¹ s⁻¹

ARIEY-LTASG
Kobs [1, 4]: 654.784 M⁻¹ s⁻¹
relative probability (RP) [2, 5]: 5.366
Kobs [3, 6]: 1816.46 M⁻¹ s⁻¹

ARLGY-LTASG
Kobs [1, 4]: 418.952 M⁻¹ s⁻¹
relative probability (RP) [2, 5]: 24.8925
Kobs [3, 6]: 10866.7 M⁻¹ s⁻¹

ARPEF-LTASG
Kobs [1, 4]: 7015.91 M⁻¹ s⁻¹
relative probability (RP) [2, 5]: 12.0159
Kobs [3, 6]: 8941.32 M⁻¹ s⁻¹

ARSYN-LTASG
Kobs [1, 4]: 3964.21 M⁻¹ s⁻¹
relative probability (RP) [2, 5]: 6.093
Kobs [3, 6]: 3165.09 M⁻¹ s⁻¹

ARVRH-LTASG
Kobs [1, 4]: 4335.13 M⁻¹ s⁻¹
relative probability (RP) [2, 5]: 25.4239
Kobs [3, 6]: 7815.03 M⁻¹ s⁻¹

ASTLH-LTASG
Kobs [1, 7]: 56.119 M⁻¹ s⁻¹
relative probability (RP) [2, 8]: 2.471
Kobs [3, 9]: 0 M⁻¹ s⁻¹

ATIAH-LTASG
Kobs [1, 7]: 1465.65 M⁻¹ s⁻¹
relative probability (RP) [2, 8]: 32.9345
Kobs [3, 9]: 12792.1 M⁻¹ s⁻¹

ATPES-LTASG
Kobs [1, 4]: 6131.32 M⁻¹ s⁻¹
relative probability (RP) [2, 5]: 26.0767
Kobs [3, 6]: 8941.32 M⁻¹ s⁻¹

AVANS-LTASG
Kobs [1, 4]: 1465.65 M⁻¹ s⁻¹
relative probability (RP) [2, 5]: 10.0738
Kobs [3, 6]: 7386.83 M⁻¹ s⁻¹

VAISR-LTASG
Kobs [1, 10]: 113.394 M⁻¹ s⁻¹
Kobs [3, 11]: 12792.1 M⁻¹ s⁻¹

VDHAH-LTASG
Kobs [1, 12]: 0 M⁻¹ s⁻¹
Kobs [3, 13]: 5269.78 M⁻¹ s⁻¹

VDILH-LTASG
Kobs [1, 12]: 551.253 M⁻¹ s⁻¹
Kobs [3, 13]: 3438.54 M⁻¹ s⁻¹

VEAHA-LTASG
Kobs [1, 10]: 2837.92 M⁻¹ s⁻¹
Kobs [3, 11]: 7015.91 M⁻¹ s⁻¹

VFALN-LTASG
Kobs [1, 12]: 12792.1 M⁻¹ s⁻¹
Kobs [3, 13]: 12792.1 M⁻¹ s⁻¹

VFYQS-LTASG
Kobs [1, 12]: 0 M⁻¹ s⁻¹
Kobs [3, 13]: 12792.1 M⁻¹ s⁻¹

VHAVW-LTASG
Kobs [1, 12]: 12792.1 M⁻¹ s⁻¹
Kobs [3, 13]: 12792.1 M⁻¹ s⁻¹

VHVHA-LTASG
Kobs [1, 12]: 2476.66 M⁻¹ s⁻¹
Kobs [3, 13]: 5461.43 M⁻¹ s⁻¹

VIVAA-LTASG
Kobs [1, 12]: 10866.7 M⁻¹ s⁻¹
Kobs [3, 13]: 12792.1 M⁻¹ s⁻¹

VKAQH-LTASG
Kobs [1, 10]: 2476.66 M⁻¹ s⁻¹
Kobs [3, 11]: 7815.03 M⁻¹ s⁻¹

VKVWG-LTASG
Kobs [1, 10]: 8321.48 M⁻¹ s⁻¹
Kobs [3, 11]: 5461.43 M⁻¹ s⁻¹

VMHQN-LTASG
Kobs [1, 10]: 171.876 M⁻¹ s⁻¹
Kobs [3, 11]: 8941.32 M⁻¹ s⁻¹

VNVRN-LTASG
Kobs [1, 10]: 5269.78 M⁻¹ s⁻¹
Kobs [3, 11]: 12792.1 M⁻¹ s⁻¹

VPPMP-LTASG
Kobs [1, 12]: 12792.1 M⁻¹ s⁻¹
Kobs [3, 13]: 12792.1 M⁻¹ s⁻¹

VQLRS-LTASG
Kobs [1, 12]: 7015.91 M⁻¹ s⁻¹
Kobs [3, 13]: 12792.1 M⁻¹ s⁻¹

VRTMA-LTASG
Kobs [1, 12]: 1030.73 M⁻¹ s⁻¹
Kobs [3, 13]: 142.481 M⁻¹ s⁻¹

VSISF-LTASG
Kobs [1, 12]: 654.784 M⁻¹ s⁻¹
Kobs [3, 13]: 12792.1 M⁻¹ s⁻¹

VSVDQ-LTASG
Kobs [1, 10]: 0 M⁻¹ s⁻¹
Kobs [3, 11]: 0 M⁻¹ s⁻¹

VTPLY-LTASG
Kobs [1, 12]: 12792.1 M⁻¹ s⁻¹
Kobs [3, 13]: 12792.1 M⁻¹ s⁻¹

VTVIA-LTASG
Kobs [1, 12]: 951.362 M⁻¹ s⁻¹
Kobs [3, 13]: 1711.63 M⁻¹ s⁻¹

VVAVS-LTASG
Kobs [1, 12]: 9740.44 M⁻¹ s⁻¹
Kobs [3, 13]: 12792.1 M⁻¹ s⁻¹

VWGRA-LTASG
Kobs [1, 12]: 8321.48 M⁻¹ s⁻¹
Kobs [3, 13]: 7386.83 M⁻¹ s⁻¹

VYSAY-LTASG
Kobs [1, 10]: 142.481 M⁻¹ s⁻¹
Kobs [3, 11]: 8941.32 M⁻¹ s⁻¹

WHFGA-LTASG
Kobs [1, 12]: 0 M⁻¹ s⁻¹
Kobs [3, 13]: 12792.1 M⁻¹ s⁻¹

WLAQA-LTASG
Kobs [1, 12]: 7815.03 M⁻¹ s⁻¹
Kobs [3, 13]: 12792.1 M⁻¹ s⁻¹

WLYAH-YTASG
Kobs [1, 10]: 113.394 M⁻¹ s⁻¹
Kobs [3, 11]: 1816.46 M⁻¹ s⁻¹

WNSLN-LTASG
Kobs [1, 10]: 451.441 M⁻¹ s⁻¹
Kobs [3, 11]: 484.315 M⁻¹ s⁻¹

WSVQL-LTASG
Kobs [1, 12]: 355.093 M⁻¹ s⁻¹
Kobs [3, 13]: 551.253 M⁻¹ s⁻¹

WVANM-ITASG
Kobs [1, 12]: 1513.13 M⁻¹ s⁻¹
Kobs [3, 13]: 7386.83 M⁻¹ s⁻¹

YAPGS-MTASG
Kobs [1, 12]: 3741.87 M⁻¹ s⁻¹
Kobs [3, 13]: 5269.78 M⁻¹ s⁻¹

YATWS-MTASG
Kobs [1, 12]: 27.918 M⁻¹ s⁻¹
Kobs [3, 13]: 0 M⁻¹ s⁻¹

YFARQ-LTASG
Kobs [1, 12]: 3438.54 M⁻¹ s⁻¹
Kobs [3, 13]: 2038.8 M⁻¹ s⁻¹

YFPLD-MTASG
Kobs [1, 10]: 7815.03 M⁻¹ s⁻¹
Kobs [3, 11]: 3637.04 M⁻¹ s⁻¹

YKAFT-MTASG
Kobs [1, 10]: 386.839 M⁻¹ s⁻¹
Kobs [3, 11]: 113.394 M⁻¹ s⁻¹

YLPRA-ITASG
Kobs [1, 12]: 12792.1 M⁻¹ s⁻¹
Kobs [3, 13]: 12792.1 M⁻¹ s⁻¹

YNVNY-LTASG
Kobs [1, 10]: 201.585 M⁻¹ s⁻¹
Kobs [3, 11]: 3964.21 M⁻¹ s⁻¹

YQTMA-LTASG
Kobs [1, 12]: 585.336 M⁻¹ s⁻¹
Kobs [3, 13]: 551.253 M⁻¹ s⁻¹

YRVAF-LTASG
Kobs [1, 12]: 5090.5 M⁻¹ s⁻¹
Kobs [3, 13]: 7015.91 M⁻¹ s⁻¹

YSALP-MTASG
Kobs [1, 10]: 3964.21 M⁻¹ s⁻¹
Kobs [3, 11]: 1561.44 M⁻¹ s⁻¹

YSPSL-ITASG
Kobs [1, 10]: 2476.66 M⁻¹ s⁻¹
Kobs [3, 11]: 4470.66 M⁻¹ s⁻¹

YTMLH-LTASG
Kobs [1, 10]: 0 M⁻¹ s⁻¹
Kobs [3, 11]: 726.013 M⁻¹ s⁻¹

YYASH-LTASG
Kobs [1, 10]: 1373.05 M⁻¹ s⁻¹
Kobs [3, 11]: 7015.91 M⁻¹ s⁻¹
